Values quoted from earlier work as cited in publication PMC11336009 (GeroScience, 2024).

How the values were obtained:
Details in all cases: cited from earlier work
[1] = system: rat rotenone model of PD
[2] = system: diabetic mice after ischemic stroke; design: method as in PMID 24821550
[3] = system: rat 3-nitropropionic acid (3NP) model; design: method as in PMID 31728850

## liraglutide (HAEGTFTSDVSSYLEGQAAKEFIAWLVRGRG; chains of the INN, looked up) [GLP-1R agonist]
[1]
  Effects in rat rotenone model of PD: mitigated motor deficits, striatal DA loss, SNc dopaminergic neuronal degeneration and neuroinflammation

## Cn1c(=O)cc(N2CCC[C@@H](N)C2)n(Cc2ccccc2C#N)c1=O [alogliptin]
[1]; same effects as described for saxagliptin
  Effects in rotenone challenged PD rats: do the same

## CC#CCn1c(N2CCC[C@@H](N)C2)nc2c1c(=O)n(Cc1nc(C)c3ccccc3n1)c(=O)n2C [linagliptin]
[2]
  Neural stem cell proliferation after ischemic stroke: augment neural stem cell proliferation

## N#C[C@@H]1C[C@@H]2C[C@@H]2N1C(=O)[C@@H](N)C12CC3CC(CC(O)(C3)C1)C2 [saxagliptin]
[1]
  Effects in rat rotenone PD model: preserve TH levels within the SNc and mitigate striatal declines in DA and TH levels

## N#C[C@@H]1CCCN1C(=O)CNC12CC3CC(CC(O)(C3)C1)C2 [Vildagliptin]
[1]
  Effects in rat rotenone PD model: mitigate striatal DA loss, neuroinflammation and motor deficits
[3]
  Effects in striatum of rat 3NP model of late-stage Huntington's disease: reduce neuronal degeneration and markers of oxidative stress
